Test results as given in US20230072421A1, “TARGETED RADIOPHARMACEUTICALS FOR THE DIAGNOSIS AND TREATMENT OF PROSTATE CANCER” (Bayer AS, priority 2019, published 2023).

Molecular target: T1, PSMA-expressing LNCaP cells (Homo sapiens, UniProt Q04609)
T1 construct: PSMA-expressing LNCaP cells; endogenous in cells; host or cells: LNCaP
Experiment: Binding competition assay against 3H-PSMA-617 on LNCaP cells
Settings: LNCaP cells, 10 nM 3H-PSMA-617, 2 h at 37° C., triplicates; for remaining activity at 0.01 µM / % remaining 3H-PSMA-617 @ 10 nM (mean): competing non-radiolabeled compound 10 nM; for remaining activity at 0.1 µM / % remaining 3H-PSMA-617 @ 100 nM (mean): competing non-radiolabeled compound 100 nM
Method: Cells were incubated at 37° C. and 5% CO2 over night. […] After addition of the compounds in growth media the cells were swiveled slightly on a shaker mixing for 10 min followed by incubation for 2 h at 37° C., 5% C02. Following the incubation time the supernatant was removed by pipetting and cells were washed twice with ice cold PBS (total of 800 μl). Cells were lysed in 500 μl of 0.3M NaOH (PanReac AppliChem ITW Reagents) by vigorous shaking for 15 min and the cell lysated pipetted into scintillator tubes (S207-[…]® Scintillation Vials 6.5 ml #S207, Simport). In the following the wells were washed with 500 μl PBS and the washing PBS added to the corresponding samples in the sincitallator tubes. To each sample in the scintillator tubes 4 mL of Ultima Gold liquid scintillation cocktail (Sigma-Aldrich #L8286) was added and the samples let stand for at least 30 min. Thereafter radioactivity was counted in a Tri-Carb Liquid Scinzillation Analyzer (Perkin Elmer).

T1 sequence (Q04609 whole entry): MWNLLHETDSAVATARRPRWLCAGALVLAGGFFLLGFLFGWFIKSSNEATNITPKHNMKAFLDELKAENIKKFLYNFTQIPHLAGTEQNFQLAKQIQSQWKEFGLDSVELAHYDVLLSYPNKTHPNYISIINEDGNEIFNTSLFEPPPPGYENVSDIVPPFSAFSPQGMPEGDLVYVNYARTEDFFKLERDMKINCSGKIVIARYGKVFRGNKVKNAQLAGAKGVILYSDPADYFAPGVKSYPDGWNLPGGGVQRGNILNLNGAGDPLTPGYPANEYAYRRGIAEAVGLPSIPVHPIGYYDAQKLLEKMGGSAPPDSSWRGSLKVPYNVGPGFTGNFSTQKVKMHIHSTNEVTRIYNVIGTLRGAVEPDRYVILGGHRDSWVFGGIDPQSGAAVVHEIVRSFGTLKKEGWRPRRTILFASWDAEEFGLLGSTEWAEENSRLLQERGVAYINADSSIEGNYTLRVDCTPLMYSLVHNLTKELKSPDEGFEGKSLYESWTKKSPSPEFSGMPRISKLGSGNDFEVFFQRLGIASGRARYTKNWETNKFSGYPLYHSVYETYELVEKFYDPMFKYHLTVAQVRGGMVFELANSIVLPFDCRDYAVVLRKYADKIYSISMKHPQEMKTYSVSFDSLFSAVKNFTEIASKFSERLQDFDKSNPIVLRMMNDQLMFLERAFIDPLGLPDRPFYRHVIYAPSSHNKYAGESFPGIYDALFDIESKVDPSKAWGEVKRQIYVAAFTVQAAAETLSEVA

Row | SMILES | remaining activity at 0.01 µM | remaining activity at 0.1 µM | % remaining 3H-PSMA-617 @ 10 nM (mean) | % remaining 3H-PSMA-617 @ 100 nM (mean)
1 | Cc1cc(C(=O)NCCN(CCCN(CCNC(=O)c2cc(C)n(CC(=O)O)c(=O)c2O)CCNC(=O)c2cc(C)n(CC(=O)NCc3ccc(C(=O)N[C@@H](Cc4ccc5ccccc5n4)C(=O)NCCCC[C@H](NC(=O)N[C@@H](CCC(=O)O)C(=O)O)C(=O)O)nc3)c(=O)c2O)CCNC(=O)c2cc(C)n(CC(=O)NCc3ccc(C(=O)NC(Cc4ccc5ccccc5n4)C(=O)NCCCC[C@H](NC(=O)N[C@@H](CCC(=O)O)C(=O)O)C(=O)O)nc3)c(=O)c2O)c(O)c(=O)n1CC(=O)O (stereo partly drawn) [34-C dimer, (3S,10S,14S,3'S,10'S,14'S)-1,1′-(propane-1,3-diylbis{[(2-{[1-(carboxymethyl)-3-hydroxy-6-methyl-2-oxo-1,2-dihydropyridine-4-carbonyl]amino}ethyl)azanediyl]ethane-2,1-diylcarbamoyl(3-hydroxy-6-methyl-2-oxopyridine-4,1(2H)-diyl)(1-oxoethane-2,1-diyl)azanediylmethylenepyridine-5,2-diyl})bis{1,4,12-trioxo-3-[(quinolin-2-yl)methyl]-2,5,11,13-tetraazahexadecane-10,14,16-tricarboxylic acid}] | 42% | 7% |  | 
2 | Cc1cc(C(=O)NCCN(CCCN(CCNC(=O)c2cc(C)n(CC(=O)O)c(=O)c2O)CCNC(=O)c2cc(C)n(CC(=O)NCc3ccc(C(=O)N[C@@H](Cc4ccc5ccccc5n4)C(=O)NCCCC[C@H](NC(=O)N[C@@H](CCC(=O)O)C(=O)O)C(=O)O)nc3)c(=O)c2O)CCNC(=O)c2cc(C)n(CC(=O)O)c(=O)c2O)c(O)c(=O)n1CC(=O)O [34-C monomer] | 58% | 10% |  | 
3 | NC[C@H]1CC[C@H](C(=O)NC(Cc2ccc3ccccc3c2)C(=O)NCCCC[C@H](NC(=O)N[C@@H](CCC(=O)O)C(=O)O)C(=O)O)CC1 (stereo partly drawn) [Example 1-A, (3S,10S,14S)-1-[(1r,4S)-4-(aminomethyl)cyclohexyl]-3-[(naphthalen-2-yl)methyl]-1,4,12-trioxo-2,5,11,13-tetraazahexadecane-10,14,16-tricarboxylic acid] | 90% | 45% |  | 
4 | O=C(O)CC[C@H](NC(=O)N[C@@H](CCCCNC(=O)[C@H](Cc1ccc2ccccc2c1)NC(=O)[C@H]1CC[C@H](CNC(=O)CN2CCN(CC(=O)O)CCN(CC(=O)O)CCN(CC(=O)O)CC2)CC1)C(=O)O)C(=O)O [Example 1-B, (3S,10S,14S)-3-[(naphthalen-2-yl)methyl]-1,4,12-trioxo-1-[(1r,4S)-4-({2-[4,7,10-tris(carboxymethyl)-1,4,7,10-tetraazacyclododecan-1-yl]acetamido}methyl)cyclohexyl]-2,5,11,13-tetraazahexadecane-10,14,16-tricarboxylic acid, reference compound] | 66% | 17% |  | 
5 | O=C(O)CC[C@H](NC(=O)N[C@@H](CCCCNC(=O)[C@H](Cc1ccc2ccccc2c1)NC(=O)[C@H]1CC[C@H](CNC(=O)C[N+]23CC[N+]45CC[N+]67CC[N+]8(CC2)CC(=O)[O][Th]3486([O]C(=O)C5)[O]C(=O)C7)CC1)C(=O)O)C(=O)O (some centres unmarked) [Example 1-B-232Th, {3-[(naphthalen-2-yl)methyl]-1,4,12-trioxo-1-{4-[(2-{4,7,10-tris[(carboxy-kappaO)methyl]-1,4,7,10-tetraazacyclododecan-1-yl-kappa^4N^1,N^4,N^7,N^10}acetamido)methyl]cyclohexyl}-2,5,11,13-tetraazahexadecane-10,14,16-tricarboxylato(4−)}thorium(3+)] |  |  | 71% | 12%
6 | O=C(O)CC[C@@H](NC(=O)N[C@@H](CCCCNC(=O)[C@H](Cc1ccc2ccccc2c1)NC(=O)[C@H]1CC[C@H](CNC(=O)CN2CCN(CC(=O)O)CCN(CC(=O)O)CCN(CC(=O)O)CC2)CC1)C(=O)O)C(=O)O [Example 1-B-D, (3S,10S,14R)-3-[(naphthalen-2-yl)methyl]-1,4,12-trioxo-1-[(1r,4S)-4-({2-[4,7,10-tris(carboxymethyl)-1,4,7,10-tetraazacyclododecan-1-yl]acetamido}methyl)cyclohexyl]-2,5,11,13-tetraazahexadecane-10,14,16-tricarboxylic acid] | 80% | 78% |  | 
7 | O=C(O)CC[C@H](NC(=O)N[C@@H](CCCCNC(=O)[C@H](Cc1ccc2ccccc2c1)NC(=O)[C@H]1CC[C@H](CNC(=S)Nc2ccc(CC(CN(CCNC(=O)c3ccn(CCO)c(=O)c3O)CCNC(=O)c3ccn(CCO)c(=O)c3O)CN(CCNC(=O)c3ccn(CCO)c(=O)c3O)CCNC(=O)c3ccn(CCO)c(=O)c3O)cc2)CC1)C(=O)O)C(=O)O [Example 1-F, (3S,10S,14S)-1-{(1r,4S)-4-[({[4-(3-[bis(2-{[3-hydroxy-1-(2-hydroxyethyl)-2-oxo-1,2-dihydropyridine-4-carbonyl]amino}ethyl)amino]-2-{[bis(2-{[3-hydroxy-1-(2-hydroxyethyl)-2-oxo-1,2-dihydropyridine-4-carbonyl]amino}ethyl)amino]methyl}propyl)phenyl]carbamothioyl}amino)methyl]cyclohexyl}-3-[(naphthalen-2-yl)methyl]-1,4,12-trioxo-2,5,11,13-tetraazahexadecane-10,14,16-tricarboxylic acid] | 71% | 21% |  | 
8 | O=C(O)CC[C@H](NC(=O)N[C@@H](CCCCNC(=O)[C@H](Cc1ccc2ccccc2c1)NC(=O)[C@H]1CC[C@H](CNC(=O)COCC(=O)NCCOCCOCCOCCOCCOCCOCCOCCOCCOCCOCCOCCNC(=O)COCC(=O)Nc2ccc(CC(CN(CCNC(=O)c3ccn(CCO)c(=O)c3O)CCNC(=O)c3ccn(CCO)c(=O)c3O)CN(CCNC(=O)c3ccn(CCO)c(=O)c3O)CCNC(=O)c3ccn(CCO)c(=O)c3O)cc2)CC1)C(=O)O)C(=O)O [Example 1-PEG] |  |  | 80% | 41%
9 | NC[C@H]1CC[C@H](C(=O)N[C@@H](CCCc2ccccc2)C(=O)NCCCC[C@H](NC(=O)N[C@@H](CCC(=O)O)C(=O)O)C(=O)O)CC1 [Example 3-A, N^6—{N-[(1r,4S)-4-(aminomethyl)cyclohexane-1-carbonyl]-5-phenyl-L-norvalyl}-N^2-{[(1S)-1,3-dicarboxypropyl]carbamoyl}-L-lysine] | 100% | 88% |  | 
10 | NCC1CCC(C(=O)N[C@@H](CCCNC(N)=O)C(=O)NCCCC[C@H](NC(=O)N[C@@H](CCC(=O)O)C(=O)O)C(=O)O)CC1 (stereo partly drawn) [Example 4-A, N^6—{N^2-[(1r,4S)-4-(aminomethyl)cyclohexane-1-carbonyl]-N^5-carbamoyl-L-ornithyl}-N^2-{[(1S)-1,3-dicarboxypropyl]carbamoyl}-L-lysine] | 106% | 112% |  | 
11 | NC[C@H]1CC[C@H](C(=O)N[C@@H](CCCCNC(N)=O)C(=O)NCCCC[C@H](NC(=O)N[C@@H](CCC(=O)O)C(=O)O)C(=O)O)CC1 [Example 5-A, N^6—{N^2-[(1r,4S)-4-(aminomethyl)cyclohexane-1-carbonyl]-N^6-carbamoyl-L-lysyl}-N^2-{[(1S)-1,3-dicarboxypropyl]carbamoyl}-L-lysine] | 109% | 112% |  | 
12 | NC[C@H]1CC[C@H](C(=O)N[C@@H](Cc2cc(F)c(F)c(F)c2)C(=O)NCCCC[C@H](NC(=O)N[C@@H](CCC(=O)O)C(=O)O)C(=O)O)CC1 [Example 6-A, N^6—{N-[(1r,4S)-4-(aminomethyl)cyclohexane-1-carbonyl]-3,4,5-trifluoro-L-phenylalanyl}-N^2-{[(1S)-1,3-dicarboxypropyl]carbamoyl}-L-lysine] | 98% | 86% |  | 
13 | NC[C@H]1CC[C@H](C(=O)N[C@@H](Cc2ccc(F)cc2)C(=O)NCCCC[C@H](NC(=O)N[C@@H](CCC(=O)O)C(=O)O)C(=O)O)CC1 [Example 7-A, N^6—{N-[(1r,4S)-4-(aminomethyl)cyclohexane-1-carbonyl]-4-fluoro-L-phenylalanyl}-N^2-{[(1S)-1,3-dicarboxypropyl]carbamoyl}-L-lysine] | 106% | 93% |  | 
14 | CC(C)(C)c1ccc(C[C@H](NC(=O)[C@H]2CC[C@H](CN)CC2)C(=O)NCCCC[C@H](NC(=O)N[C@@H](CCC(=O)O)C(=O)O)C(=O)O)cc1 [Example 8-A, N^6—{N-[(1r,4S)-4-(aminomethyl)cyclohexane-1-carbonyl]-4-tert-butyl-L-phenylalanyl}-N^2-{[(1S)-1,3-dicarboxypropyl]carbamoyl}-L-lysine] | 92% | 111% |  | 
15 | NC[C@H]1CC[C@H](C(=O)N[C@@H](CCCCNC(=O)c2cccnc2)C(=O)NCCCC[C@H](NC(=O)N[C@@H](CCC(=O)O)C(=O)O)C(=O)O)CC1 [Example 9-A, N^6—{N^2-[(1r,4S)-4-(aminomethyl)cyclohexane-1-carbonyl]-N^6-(pyridine-3-carbonyl)-L-lysyl}-N^2-{[(1S)-1,3-dicarboxypropyl]carbamoyl}-L-lysine] | 147% | 114% |  | 
16 | NC[C@H]1CC[C@H](C(=O)N[C@@H](Cc2cccc(F)c2)C(=O)NCCCC[C@H](NC(=O)N[C@@H](CCC(=O)O)C(=O)O)C(=O)O)CC1 [Example 10-A, N^6—{N-[(1r,4S)-4-(aminomethyl)cyclohexane-1-carbonyl]-3-fluoro-L-phenylalanyl}-N^2-{[(1S)-1,3-dicarboxypropyl]carbamoyl}-L-lysine] | 91% | 60% |  | 
